Assay results taken from a melting point compilation (Tetko et al.; mined from patent text by program, amines drawn as free bases though some values may be those of a salt).

melting point [°C] | SMILES
46.5 to 47.5 | NS(=O)(=O)c1ccc(SCCO)s1
160 | CC(C)CNC(=O)[C@H]1C[C@H](C(=O)OC(C)(C)C)N(C(=O)CNC(=O)Nc2cccc(C(=O)O)c2)[C@@H]1c1ccccc1F (racemic)
61 to 62 | COC(=O)C(COC(C)=O)C(=O)OC(C)(C)C (stereo not drawn)
137 to 138 | CC(=NO)C(=O)c1ccc(OCc2cccc(C(F)(F)F)c2)cc1
98 to 101 | CC(C)c1cc(C(C)C)c(CC#N)c(C(C)C)c1C#N
166 to 171 | CCOc1ccccc1Sc1ccc(/C=C/C(=O)N2CCCC(C(=O)O)C2)cc1Cl (stereo not drawn)
164 to 166 | CNS(=O)(=O)c1ccc(N2CC(CO)OC2=O)cc1 (stereo not drawn)
205 to 207 | COC(=O)c1ccc2c(=O)n(CC(C)C)c(CNC(=O)OC(C)(C)C)c(-c3ccc(Cl)cc3)c2c1
170 to 172 | CNC1=NS(=O)(=O)N=C1NCCSCc1cnc(CN(C)C)s1
143 to 146 | CCCCc1ncc(/C=C2\C(=O)NC(=O)N2CCC(C)C)n1Cc1ccc(C(=O)O)cc1
159 to 160 | CC(=O)c1cc(O)c(O)c([N+](=O)[O-])c1
131 | CC(C)(C)NC(=O)c1ccc(Cl)c(C(F)(F)F)c1
199 to 200 | CC(C)(O)c1cnn2c(-c3ccc(F)c(-c4cccnc4)c3)cnc2n1
115 to 116 | CCOC(=O)c1ccc2[nH]c([Si](C)(C)C)c(CCCO[Si](C)(C)C(C)(C)C)c2c1
270 to 272 | COc1cc(OC)c2c(=O)[nH]c(-c3cc(C)c(OCC(=O)O)c(C)c3)nc2c1
294 to 296 | Cc1cc2c(cc1C)-n1c(C)nnc1C=C(c1ccc(-n3c(C)nc4cnccc43)cc1)N2
83 to 85 | COC[C@@H](N)C(=O)N(O)C(=O)OC(C)(C)C
224 to 226 | O=C(CCC(=O)N1CCC(N2Cc3ccccc3NC2=O)CC1)c1ccc(Cl)c(Cl)c1
84 to 86 | C=C1c2ccccc2CC(=O)c2ccccc21
181 to 182 | COc1cc2ncnc(Nc3cccc(C)c3)c2c(N)c1OC
111 to 117 | COc1cc(C(C)C)c(Oc2cnc(N[C@H](C)CO)nc2N)cc1Cl
104 to 106 | CC(C)=NOc1ccc([N+](=O)[O-])cc1
297 to 300 | O=C(O)c1cc2cc(-c3ccc(O)cc3)ccc2o1
212 to 214 | C=C1CC(COc2cc(=O)oc3ccccc23)(c2ccccc2)OC1=O (stereo not drawn)

melting point [°C] | SMILES
176 to 178 | Clc1nc(SCc2ccccc2)nc2nc[nH]c12
198 to 200 | Cc1cccc2c1C(=O)/C(=C(\N)c1ccccc1)S2
147 to 148 | COC(=O)c1ccc(C)c(-n2c(C)cc(OCc3ccccc3CNC(=O)Nc3cc(C(C)(C)C)nn3-c3cccc(OCCO)c3)c(Cl)c2=O)c1
207 to 210 | Cc1ccc(C(=O)N2CCc3nnc(NN)cc3C2)cc1
55 to 57 | CCCN(CCC)CCCOc1ccc(-c2noc(-c3ccccc3)n2)cc1
75 to 76 | CCSc1ccc([N+](=O)[O-])c(N)c1
221 to 223 | Cc1nc2cnc(Nc3ccc(N4CCNCC4)cn3)nc2n(C2CCCC2)c1=O
220 to 222 | COc1cccc2c(=O)n(S(=O)(=O)c3ccc(Cl)cc3)c(=O)[nH]c12
161 to 163 | O=C(NCc1ccc(/C=C/C(c2cc(Cl)c(Cl)c(Cl)c2)C(F)(F)F)cc1Cl)C(=O)NCC(F)(F)F (stereo not drawn)
169 to 170 | O=C(O)C(=O)c1ccc(OCCCNC(=O)c2ccc3ccccc3c2)cc1
185 to 188 | N[C@@H](CSCCC1CCN(C(=O)OCc2ccccc2)CC1)C(=O)O
139 to 140 | COC(=O)c1oc2cc(OCc3nc(-c4ccccc4)oc3C)ccc2c1-c1ccccc1
141 to 142 | CC(C)(C)C(F)(F)c1ccc(C[C@@H](C(=O)O)[C@@H](O)c2cccc(Cl)c2)cc1 (racemic)
134 to 135 | O=C(O)c1cc([N+](=O)[O-])ccc1OC(F)(F)F
169 to 173 | CC(C)COC(=O)N1CCC(c2ccc3oc(-c4ccc(S(C)(=O)=O)cc4F)nc3c2)CC1
204 to 206 | O=C1c2ccncc2C(=O)c2c(Cl)ccc(F)c21
192 | Cn1c(=O)cc(-c2cccc(Cl)c2)c2cc(C(=O)c3ccoc3)ccc21
212 to 214 | O=C(N[C@H]1CCCNC1=O)c1ccc(C(F)(F)F)cc1
> 220 | CSc1nc(O)cc(-c2cccc(C#N)c2)n1
130 to 132 | CCCc1c(OCCCSc2ccc(C(=O)CCCCC(=O)O)cc2)ccc(C(C)=O)c1O
180 | Nc1ncnc2c1ncn2[C@H]1C=C[C@@H](O)C1 (racemic)
119 to 122 | O=C1NCC(CN2CCCCC2)c2c[nH]c3cccc1c23 (stereo not drawn)
258 to 259 | CCNc1nc(NC(C)C)cc(NS(=O)(=O)c2ccc(N)cc2)n1
236 to 238 | NS(=O)(=O)c1ccc(-c2cnn(Cc3cc(F)c(F)cc3F)c(=O)c2-c2ccc(F)cc2)cc1

melting point [°C] | SMILES
125 | CNc1ccc(Cl)cc1Cc1ccccc1
108 to 110 | CCc1ccccc1OC(CC)C(=O)OC1CC(O)C=C2C=CC(C)C(CCC3CC(O)CC(=O)O3)C21 (mixture of isomers)
131 to 132 | C[C@H](C#Cc1sc(Cc2ccc(F)cc2)cc1Cl)N(O)C(N)=O
167 to 168 | CCOC(=O)C(N)C=CCP(=O)(O)O (stereo not drawn)
217 to 218 | O=C1NC(=O)C2(c3ccccc3)CC1C2
124 to 126 | Nc1ccc(OC2(c3ccccc3)CCN(Cc3ccccc3)CC2)cc1
187 to 189 | CCS(=O)(=O)Nc1cc(-c2ncnc(OC)c2C#N)c(F)cc1C#N
215 to 218 | COc1ccc(NC(=O)C2=C(O)c3ccccc3S(=O)(=O)N2C)ccc1=O
126 to 128 | CN(C)Cc1cccc(OCCCNc2nc(-c3ccccc3)n[nH]2)c1
227 | O=C(O)c1ccc(-c2ccc(C(F)(F)F)cc2)s1
195 to 197 | Cc1c(C#N)sc2nc(-c3ccc4c(c3)OCO4)nc(N(C)CCO)c12
225 to 226 | CC(C)n1nc(-c2nc(-c3ccccc3)c(N)nc2-c2ccccc2)ccc1=O
242 | N#Cc1cccnc1-n1cc(-c2ccc(Oc3ccccc3)cc2)c2c(N)ncnc21
219 to 220 | Cc1ccc(-c2ccc3c(c2)C=C(C(=O)Nc2ccc(CO)cc2)CC3)cc1
154 | CN(C)C(=O)c1cc(N)cc(C(F)(F)F)c1
103 to 105 | O=C1c2ccc(-c3cccnc3)cc2CC1Cl (stereo not drawn)
36 to 39 | CNC(=O)C1CCCN1S(=O)(=O)c1ccc(N2CCC(NC[C@H](O)COc3cccc4[nH]c(=O)[nH]c34)CC2)cc1 (stereo partly drawn)
202 to 204 | CC(=O)[NH+]([O-])C[C@@H]1CN(c2ccc(N3CCOCC3)c(F)c2)C(=O)O1 (stereo partly drawn)
204 to 208 | CC(CCC=CC(=O)O)C1CCC2C3CCC4CC(O)CCC4(C)C3CC(O)C12C (stereo not drawn)
93 to 95 | CCCCC(Cc1ccc(OCCNC(=O)c2ccc(-c3ccc(C(=O)OC)cc3)cc2)cc1)C(=O)OCC (stereo not drawn)
134 to 138 | Cc1ccc(S(=O)(=O)c2ccc3[nH]c(C)c(CCNC(=O)OC(C)(C)C)c3c2)cc1
122 to 125 | O=S(=O)(c1ccc(O)cc1)N1CCCC1
144 | CC(C)(C)C(=O)C(C#N)C(=O)c1ccc(S(C)(=O)=O)cc1Cl (stereo not drawn)
121 to 123 | CSc1nc2nc(C)cc(-c3ccccc3)n2n1

melting point [°C] | SMILES
136 to 138 | CS(=O)(=O)c1nc(Cl)c(Cc2ccccc2)c(N2CCCC2)n1
203 to 204 | CCCCc1nc2cccc(CO)c2n1Cc1ccc(-c2ccccc2C#N)cc1
200 to 201 | COc1cc2ncnc(N3CCN(C(=O)NCc4ccc(F)cc4)CC3)c2cc1OC
198 to 200 | Cc1ccc(-c2c(-c3ccc(S(N)(=O)=O)cc3)cnn(-c3ccc(F)c(F)c3)c2=O)cc1F
123 to 124 | CCN(CC)C(=O)c1cc(-c2ccccc2)c2ccccc2c1
143 to 144 | COc1cc(C2=NC(C)(C)C(c3ccncc3)C2)cc(OC)c1OC (stereo not drawn)
228 to 230 | Nc1ncc(-c2cccc(Cl)c2Cl)c(Cl)n1
92 to 93 | c1cc(OCc2ccc3ccccc3n2)cc(C2SCCCS2)c1
168 | COC(=O)C(=Cc1cccc(-c2ccc(Cl)cc2)c1)NC(C)=O
256 to 257 | O=C(O)c1sccc1SSc1ccsc1C(=O)O
78 to 80 | COC(=O)CCNc1ccccc1CNC(=O)C1Cc2ccccc2N1S(=O)(=O)c1ccc(-c2ccc(F)cc2OC)cc1 (stereo not drawn)
161 to 162 | CCc1nn2ccc3c(c2c1CCNC(C)=O)CCO3
> 300 | COc1ccc(-n2c(=O)c(Cl)nc3cccnc32)cc1
146 to 147 | Cc1cc(C)c2oc(S)nc2c1C
166 to 168 | COc1ccc2cc(S(=O)(=O)Nc3cccc(Cl)c3C)cc(S(=O)(=O)Nc3cccc(Cl)c3C)c2c1
159 to 160 | COc1ccc(-n2cnc3ccc(-c4nnc(CCc5cccc(C(F)(F)F)c5)o4)cc32)cc1
248 to 250 | CCc1ccc(Nc2c(C#N)cnc3cc(OC)c(OC)cc23)cc1
110 to 112 | COc1ccc(OCCO[N+](=O)[O-])c(C2NC(C(=O)O)CS2)c1 (stereo not drawn)
162 to 164 | CC1(C)OC(c2ccc(S(C)(=O)=O)cc2)=C(c2ccc(F)c(Cl)c2)C1=O
77 to 79 | OCCSc1nc(-c2ccccc2)c(-c2ccccc2)s1
90 to 92 | COC(=O)C(=CNc1c(-c2ccccc2)csc1C(=O)O)SC

SMILES | melting point [°C]
CCCc1c(C(=O)CC(C)OC)c2ccc(C(N)=O)cc2n1Cc1cc2c(cc1Cl)OCO2 (stereo not drawn) | 190 to 192
CC1Cc2cc3c(cc2C(c2ccc([N+](=O)[O-])cc2)=NN1C(=O)NCCCl)OCO3 (stereo not drawn) | 222 to 223
Cc1ccc(P(C)(C)=O)cc1 | 90 to 92
Clc1ccc2[nH]cc(C3=CCN(CCCOc4cccc5[nH]ccc45)CC3)c2c1 | 198 to 202
Cc1onc(-c2ccccc2)c1C(=O)N[C@@H]1N=C(c2ccccc2)c2ccccc2N(C)C1=O | 123 to 126
